This data set in a line: Solubility in water, shaken five days, HPLC. It counts as physicochemical. Particulars: thermodynamic from solid, room temperature (25° C.). Here is the method: […] of each of the complexes and artemisinin crystals were separately shaken in 25 ml of water maintained at room temperature (25° C.) for five days. The solution was then filtered through a 0.2 μu membrane filter and suitably diluted before analysis. An analysis of the drug concentration in the solution was determined by high performance liquid chromatography using a method reported by Chan et al (1997).

≈ marks a conversion by molar mass, not a printed value.

As a reminder, the solubility is the dissolved amount per volume that the medium holds. High values mean a readily soluble substance, low ones a poorly soluble substance. With `C[C@@H]1CC[C@H]2[C@@H](C)C(=O)O[C@@H]3O[C@@]4(C)CC[C@@H]1[C@]32OO4` [artemisinin crystals, artemisinin], the concentration in solution (solubility at 5 days) was 55.7 ± 1.75 µg/mL (≈ 197 µM).
